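1) Cells in 96-well plates. 2) Compound, 48 h, 5 concentrations. 3) Linear interpolation between surrounding doses. 4) Unreached endpoint = highest concentration. TGI marks complete inhibition of growth.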
Experiments:
Assay in all cases: NCI anticancer screen, dose series, 48 h
OVCAR-4 ovarian = test system: OVCAR-4 ovarian
MDA-MB-231 breast = test system: MDA-MB-231 breast
DU-145 prostate = test system: DU-145 prostate
IGROV1 ovarian = test system: IGROV1 ovarian
HT29 colon = test system: HT29 colon
TK-10 renal = test system: TK-10 renal
OVCAR-8 ovarian = test system: OVCAR-8 ovarian
U251 CNS = test system: U251 CNS
K-562 leukemia = test system: K-562 leukemia
SF-295 CNS = test system: SF-295 CNS
HCT-15 colon = test system: HCT-15 colon
SNB-19 CNS = test system: SNB-19 CNS
HS 578T breast = test system: HS 578T breast
SNB-75 CNS = test system: SNB-75 CNS
OVCAR-3 ovarian = test system: OVCAR-3 ovarian
SK-OV-3 ovarian = test system: SK-OV-3 ovarian
OVCAR-5 ovarian = test system: OVCAR-5 ovarian
UACC-257 melanoma = test system: UACC-257 melanoma
NCI-H522 lung = test system: NCI-H522 lung
KM12 colon = test system: KM12 colon
SK-MEL-5 melanoma = test system: SK-MEL-5 melanoma
SR leukemia = test system: SR leukemia
SK-MEL-28 melanoma = test system: SK-MEL-28 melanoma
HCT-116 colon = test system: HCT-116 colon
MALME-3M melanoma = test system: MALME-3M melanoma
EKVX NSCLC = test system: EKVX NSCLC
COLO 205 colon = test system: COLO 205 colon
CAKI-1 renal = test system: CAKI-1 renal
MOLT-4 leukemia = test system: MOLT-4 leukemia
SF-539 CNS = test system: SF-539 CNS
A498 renal = test system: A498 renal
CCRF-CEM leukemia = test system: CCRF-CEM leukemia
NCI-H23 lung = test system: NCI-H23 lung
RXF 393 renal = test system: RXF 393 renal
NCI-H460 lung = test system: NCI-H460 lung
HOP-92 NSCLC = test system: HOP-92 NSCLC
SW-620 colon = test system: SW-620 colon
HOP-62 NSCLC = test system: HOP-62 NSCLC
SF-268 CNS = test system: SF-268 CNS
NCI/ADR-RES ovarian = test system: NCI/ADR-RES ovarian
UACC-62 melanoma = test system: UACC-62 melanoma
PC-3 prostate = test system: PC-3 prostate
RPMI-8226 leukemia = test system: RPMI-8226 leukemia
T-47D breast = test system: T-47D breast
LOX IMVI melanoma = test system: LOX IMVI melanoma
SN12C renal = test system: SN12C renal
A549 NSCLC = test system: A549 NSCLC
M14 melanoma = test system: M14 melanoma
MCF7 breast = test system: MCF7 breast
MDA-MB-435 = test system: MDA-MB-435
NCI-H226 lung = test system: NCI-H226 lung
BT-549 breast = test system: BT-549 breast
ACHN renal = test system: ACHN renal
786-0 renal = test system: 786-0 renal
MDA-N = test system: MDA-N
SK-MEL-2 melanoma = test system: SK-MEL-2 melanoma
UO-31 renal = test system: UO-31 renal
HCC-2998 colon = test system: HCC-2998 colon

Measured: TGI

CC(=O)C(C(=N)C#N)C(=O)Nc1ccccc1 (centres undefined)
not listed: UO-31 renal | HCC-2998 colon
> 100 µM: all other assays above

O=C1CSC2(CC(/C=C/c3cccc(Br)c3)=NN2c2cccc(S(=O)(=O)O)c2)N1c1nc2ccccc2s1 (centres undefined)
> 100 µM: all assays above

Source: PubChem BioAssay (NCI)
